From patent US9078440B2, “6-(2-aminophenyl)picolinates and their use as herbicides” (BAYER INTELLECTUAL PROPERTY GMBH, priority 2010, dated 2015)

Assays:
Format in all cases: in vivo
Amaranthus retroflexus [1] = test: Pre-emergence herbicidal effect, greenhouse pot test; conditions: 1.28 kg of active substance per hectare, assessed visually after 3 weeks
From the text: (§1) Pre-emergence Herbicidal Effect and Crop Plant Compatibility
(§2) Seeds of monocotyledonous and dicotyledonous weed plants and crop plants are placed in wood-fibre pots in sandy loam and covered with soil. The inventive compounds, formulated in the form of wettable powders (WP) or as emulsion concentrates (EC), are then applied to the surface of the covering soil as an aqueous suspension or emulsion at a water application rate of 600 to 800 I/ha (converted) with addition of 0.2% wetting agent. After the treatment, the pots are placed in a greenhouse and kept under good growth conditions for the test plants. The damage to the test plants is assessed visually after a test period of 3 weeks by comparison with untreated controls (herbicidal activity in percent (%): 100% action=the plants have died, 0% action=like control plants).

Viola tricolor [2] = test: as above; conditions: 1.28 kg of active substance per hectare, assessed visually after 3 weeks
From the text: as §1, §2

[3] = test system: Polygonum (Fallopia) convolvulus; test: as above; conditions: 1.28 kg of active substance per hectare, assessed visually after 3 weeks
From the text: as §1, §2

Amaranthus retroflexus [4] = test: Post-emergence herbicidal effect, greenhouse pot test; conditions: 1.28 kg or less active substance per hectare, scored visually after about 3 weeks
Description: (§3) Post-emergence herbicidal effect and crop plant compatibility
(§4) Seeds of monocotyledonous and dicotyledonous weed and crop plants are placed in sandy loam in wood-fibre pots, covered with soil and cultivated in a greenhouse under good growth conditions. 2 to 3 weeks after sowing, the test plants are treated at the one-leaf stage. The inventive compounds, formulated in the form of wettable powders (WP) or as emulsion concentrates (EC), are then sprayed onto the green parts of the plants as an aqueous suspension or emulsion at a water application rate of 600 to 800 I/ha (converted) with addition of 0.2% by weight of wetting agent. After the test plants have been left to stand in the greenhouse under optimal growth conditions for about 3 weeks, the action of the formulations is scored visually in comparison to untreated controls (herbicidal action in percent (%): 100% action=the plants have died, 0% action=like control plants).

Stellaria media = test: as above; conditions: 1.28 kg or less active substance per hectare, scored visually after about 3 weeks
Description: as §3, §4

Veronica persica = test: as above; conditions: 1.28 kg or less active substance per hectare, scored visually after about 3 weeks
Description: as §3, §4

[5] = test system: Pharbitis (Ipomoea) purpurea; test: as above; conditions: 1.28 kg or less active substance per hectare, scored visually after about 3 weeks
Description: as §3, §4

Viola tricolor [6] = test: as above; conditions: 1.28 kg or less active substance per hectare, scored visually after about 3 weeks
Description: as §3, §4

Matricaria inodora = test: as above; conditions: 1.28 kg or less active substance per hectare, scored visually after about 3 weeks
Description: as §3, §4

[7] = test system: Polygonum (Fallopia) convolvulus; test: as above; conditions: 1.28 kg or less active substance per hectare, scored visually after about 3 weeks
Description: as §3, §4

Measured: herbicidal action

COC(=O)c1nc(-c2ccc(Cl)cc2N)cc(N)c1Cl [compound 58, methyl 4-amino-6-(2-amino-4-chlorophenyl)-3-chloropyridine-2-carboxylate]
at least 90%: all assays above
